What was measured:
[1] = biological target: T1, CXCR2 (Homo sapiens, UniProt P25025); experiment: fluorescent conformational probe (λmax shift) on recombinant reconstituted CXCR2, dose response and kinetics; type: binding
T1 construct: recombinant CXCR2 reconstituted in detergent buffer containing lipids
T1 sequence (P25025 1-360): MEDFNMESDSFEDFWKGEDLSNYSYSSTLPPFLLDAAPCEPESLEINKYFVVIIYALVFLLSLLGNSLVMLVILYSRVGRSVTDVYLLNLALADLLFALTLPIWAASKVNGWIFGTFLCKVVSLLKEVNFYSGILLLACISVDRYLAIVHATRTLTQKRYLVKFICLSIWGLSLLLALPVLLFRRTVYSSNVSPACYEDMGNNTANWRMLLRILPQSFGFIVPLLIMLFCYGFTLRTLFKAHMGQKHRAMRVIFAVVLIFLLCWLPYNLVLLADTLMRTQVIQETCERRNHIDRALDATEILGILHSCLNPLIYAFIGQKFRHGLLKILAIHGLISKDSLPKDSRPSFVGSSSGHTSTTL

[2] = biological target: T1, CXCR2; experiment: fluorescent conformational probe (λmax shift) kinetics on recombinant CXCR2, SX-682 […] after CXCL8 […]; type: biochemical

Row | EC50 [1] [nM] | SMILES | fluorescent conformational probe (λmax shift) kinetics on recombinant CXCR2, SX- [2]
1 | 42.7 | O=C(Nc1cc(Cl)cc(Cl)c1)Nc1nc2ccc([N+](=O)[O-])cc2s1 [RCT001, 1-(3,5-dichlorophenyl)-3-(6-nitrobenzo[d]thiazol-2-yl) urea] | 
2 |  | O=C(Nc1ccc(F)cc1)c1cnc(SCc2cc(OC(F)(F)F)ccc2B(O)O)nc1 [SX-682] | Unlike RCT001, SX-682 inhibited CXCL8-induced pocket opening of CXCR2 (Fig. S3c), firmly establishing it as a standard CXCR2 antagonist

Reference: article PMC10949812, “Unveiling CXCR2 as a promising therapeutic target in renal cell carcinoma: exploring the immunotherapeutic paradigm shift through its inhibition by RCT001” (Journal of Experimental & Clinical Cancer Research : CR, 2024)
